Reference: patent publication US8076487B2, “Pyridone derivative and herbicide” (Kumiai Chemical Industry Co., Ltd., priority 2006, dated 2011)

Tests used:
Type in all cases: in vivo
[1] = tested on: barnyardgrass (Echinochloa crus-galli (L.) P. Beauv. var. crus-galli); assay: Test Example 2: herbicidal effect by soil application to upland field; conditions: soil surface spray, upland field soil, 1,000 g active ingredient per hectare, 21st day after application
Method in brief: (§1)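 Herbicidal activity was graded on a standard scale on day 21 after soil application. The covered, freshly sown pots of field soil received an aqueous wettable-powder spray delivering 1,000 g active ingredient/ha at 1,000 liters/ha and were kept in a greenhouse.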

[2] = tested on: green foxtail (Setaria viridis (L.) P. Beauv.); assay: as above; conditions: soil surface spray, upland field soil, 1,000 g active ingredient per hectare, 21st day after application
Method in brief: as §1

[3] = tested on: slender amaranth (Amaranthus viridis L.); assay: as above; conditions: soil surface spray, upland field soil, 1,000 g active ingredient per hectare, 21st day after application
Method in brief: as §1

[4] = tested on: velvetleaf (Abutilon theophrasti medicus); assay: as above; conditions: soil surface spray, upland field soil, 1,000 g active ingredient per hectare, 21st day after application
Method in brief: as §1

[5] = tested on: early watergrass (Echinochloa oryzicola Vasing); assay: Test Example 1: herbicidal effect by soil application to paddy field; conditions: paddy field soil application; active ingredient 1,000 g per 1 hectare; wettable powder added dropwise to water surface the day after sowing; examined on the 21st day after application
Method in brief: (§2)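 Plants were sown in flooded (3 cm) paddy soil and evaluated for herbicidal effect 21 days after soil application in a greenhouse.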

[6] = tested on: heartshape false pickerelweed (Monochoria vaginalis (Burm.f.) C.Presl); assay: as above; conditions: paddy field soil application; active ingredient 1,000 g per 1 hectare; wettable powder added dropwise to water surface the day after sowing; examined on the 21st day after application
Method in brief: as §2

[7] = tested on: Japanese bulrush (Scirpus juncoides Roxb.); assay: as above; conditions: paddy field soil application; active ingredient 1,000 g per 1 hectare; wettable powder added dropwise to water surface the day after sowing; examined on the 21st day after application
Method in brief: as §2

[8] = tested on: barnyardgrass (Echinochloa crus-galli (L.) P. Beauv. var. crus-galli); assay: Test Example 3: herbicidal effect by application to upland field (foliage treatment); conditions: 14th day after application; for herbicidal effect, Barnyardgrass: foliage treatment, 1,000 g active ingredient per 1 hectare, greenhouse; for herbicidal effect (index), Barnyardgrass: foliage treatment, plants grown two weeks, 1,000 g active ingredient per hectare
Method in brief: (§3)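 Post-emergence spray at 1,000 g AI/ha of wettable powder in water (1,000 L/ha), onto seedlings grown 2 weeks in greenhouse field-soil pots. Graded day 14.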

[9] = tested on: green foxtail (Setaria viridis (L.) P. Beauv.); assay: as above; conditions: 14th day after application; for herbicidal effect, Green Foxtail: foliage treatment, 1,000 g active ingredient per 1 hectare, greenhouse; for herbicidal effect (index), Green Foxtail: foliage treatment, plants grown two weeks, 1,000 g active ingredient per hectare
Method in brief: as §3

[10] = tested on: slender amaranth (Amaranthus viridis L.); assay: as above; conditions: 14th day after application; for herbicidal effect, Slender Amaranth: foliage treatment, 1,000 g active ingredient per 1 hectare, greenhouse; for herbicidal effect (index), Slender Amaranth: foliage treatment, plants grown two weeks, 1,000 g active ingredient per hectare
Method in brief: as §3

[11] = tested on: velvetleaf (Abutilon theophrasti medicus); assay: as above; conditions: 14th day after application; for herbicidal effect, Velvetleaf: foliage treatment, 1,000 g active ingredient per 1 hectare, greenhouse; for herbicidal effect (index), Velvetleaf: foliage treatment, plants grown two weeks, 1,000 g active ingredient per hectare
Method in brief: as §3

Structure (SMILES)	herbicidal effect (index), Barnyardgrass [1]	herbicidal effect (index), Green Foxtail [2]	herbicidal effect (index), Slender Amaranth [3]	herbicidal effect (index), Velvetleaf [4]	herbicidal effect, Echinochloa oryzicola Vasing [5]	herbicidal effect, Monochoria vaginalis (Burm. f.) C. Presl [6]	herbicidal effect, Scirpus juncoides Roxb. [7]	herbicidal effect, Barnyardgrass [8]	herbicidal effect, Green Foxtail [9]	herbicidal effect, Slender Amaranth [10]	herbicidal effect, Velvetleaf [11]	herbicidal effect (index), Barnyardgrass [8]	herbicidal effect (index), Green Foxtail [9]	herbicidal effect (index), Slender Amaranth [10]	herbicidal effect (index), Velvetleaf [11]
COCCn1c(C(F)(F)F)ccc(C(=O)C2=C(O)C(C)(C)CCC2=O)c1=O [II-29]	5 (90% or more of herbicidal effect and crop phytotoxicity)	5 (90% or more of herbicidal effect and crop phytotoxicity)	5 (90% or more of herbicidal effect and crop phytotoxicity)	5 (90% or more of herbicidal effect and crop phytotoxicity)	5 (90% or more of herbicidal effect and crop phytotoxicity)	5 (90% or more of herbicidal effect and crop phytotoxicity)	5 (90% or more of herbicidal effect and crop phytotoxicity)	5 (90% or more of herbicidal effect and crop phytotoxicity)	5 (90% or more of herbicidal effect and crop phytotoxicity)	5 (90% or more of herbicidal effect and crop phytotoxicity)	5 (90% or more of herbicidal effect and crop phytotoxicity)	–	–	–	–
CCCS(=O)(=O)Oc1c(C(=O)c2ccc(C(F)(F)F)n(CC3CCCO3)c2=O)cnn1C (centres unmarked) [IV-140]	5 (90% or more of herbicidal effect and crop phytotoxicity)	5 (90% or more of herbicidal effect and crop phytotoxicity)	5 (90% or more of herbicidal effect and crop phytotoxicity)	5 (90% or more of herbicidal effect and crop phytotoxicity)	5 (90% or more of herbicidal effect and crop phytotoxicity)	5 (90% or more of herbicidal effect and crop phytotoxicity)	5 (90% or more of herbicidal effect and crop phytotoxicity)	5 (90% or more of herbicidal effect and crop phytotoxicity)	3 (50 to less than 70% of herbicidal effect and crop phytotoxicity)	5 (90% or more of herbicidal effect and crop phytotoxicity)	5 (90% or more of herbicidal effect and crop phytotoxicity)	–	–	–	–
C=CCn1c(C(F)(F)F)ccc(C(=O)C2=C(OC)CCCC2=O)c1=O [II-25]	5 (90% or more of herbicidal effect and crop phytotoxicity)	5 (90% or more of herbicidal effect and crop phytotoxicity)	5 (90% or more of herbicidal effect and crop phytotoxicity)	5 (90% or more of herbicidal effect and crop phytotoxicity)	5 (90% or more of herbicidal effect and crop phytotoxicity)	5 (90% or more of herbicidal effect and crop phytotoxicity)	5 (90% or more of herbicidal effect and crop phytotoxicity)	5 (90% or more of herbicidal effect and crop phytotoxicity)	5 (90% or more of herbicidal effect and crop phytotoxicity)	5 (90% or more of herbicidal effect and crop phytotoxicity)	5 (90% or more of herbicidal effect and crop phytotoxicity)	–	–	–	–
O=C1CCCC(O)=C1C(=O)c1ccc(C(F)(F)F)n(CC2CC2)c1=O [I-20]	5 (90% or more of herbicidal effect and crop phytotoxicity)	5 (90% or more of herbicidal effect and crop phytotoxicity)	5 (90% or more of herbicidal effect and crop phytotoxicity)	5 (90% or more of herbicidal effect and crop phytotoxicity)	5 (90% or more of herbicidal effect and crop phytotoxicity)	5 (90% or more of herbicidal effect and crop phytotoxicity)	5 (90% or more of herbicidal effect and crop phytotoxicity)	–	–	–	–	5 (90% or more of herbicidal effect and crop phytotoxicity)	5 (90% or more of herbicidal effect and crop phytotoxicity)	5 (90% or more of herbicidal effect and crop phytotoxicity)	5 (90% or more of herbicidal effect and crop phytotoxicity)
COc1cncc(-n2c(C(F)(F)F)ccc(C(=O)C3=C(O)CCCC3=O)c2=O)c1 [I-151]	5 (90% or more of herbicidal effect and crop phytotoxicity)	5 (90% or more of herbicidal effect and crop phytotoxicity)	5 (90% or more of herbicidal effect and crop phytotoxicity)	5 (90% or more of herbicidal effect and crop phytotoxicity)	5 (90% or more of herbicidal effect and crop phytotoxicity)	5 (90% or more of herbicidal effect and crop phytotoxicity)	5 (90% or more of herbicidal effect and crop phytotoxicity)	5 (90% or more of herbicidal effect and crop phytotoxicity)	5 (90% or more of herbicidal effect and crop phytotoxicity)	5 (90% or more of herbicidal effect and crop phytotoxicity)	5 (90% or more of herbicidal effect and crop phytotoxicity)	–	–	–	–
O=C1CCCC(O)=C1C(=O)c1ccc(C(F)(F)F)n(CCC=C(Cl)Cl)c1=O [I-26]	5 (90% or more of herbicidal effect and crop phytotoxicity)	5 (90% or more of herbicidal effect and crop phytotoxicity)	5 (90% or more of herbicidal effect and crop phytotoxicity)	5 (90% or more of herbicidal effect and crop phytotoxicity)	5 (90% or more of herbicidal effect and crop phytotoxicity)	5 (90% or more of herbicidal effect and crop phytotoxicity)	5 (90% or more of herbicidal effect and crop phytotoxicity)	–	–	–	–	4 (70 to less than 90% of herbicidal effect and crop phytotoxicity)	4 (70 to less than 90% of herbicidal effect and crop phytotoxicity)	5 (90% or more of herbicidal effect and crop phytotoxicity)	5 (90% or more of herbicidal effect and crop phytotoxicity)
CCn1c(C(F)(F)F)ccc(C(=O)C2=C(Sc3ccccc3)C3CCC(C3)C2=O)c1=O (centres unmarked) [III-15]	5 (90% or more of herbicidal effect and crop phytotoxicity)	5 (90% or more of herbicidal effect and crop phytotoxicity)	5 (90% or more of herbicidal effect and crop phytotoxicity)	5 (90% or more of herbicidal effect and crop phytotoxicity)	5 (90% or more of herbicidal effect and crop phytotoxicity)	5 (90% or more of herbicidal effect and crop phytotoxicity)	5 (90% or more of herbicidal effect and crop phytotoxicity)	5 (90% or more of herbicidal effect and crop phytotoxicity)	5 (90% or more of herbicidal effect and crop phytotoxicity)	5 (90% or more of herbicidal effect and crop phytotoxicity)	5 (90% or more of herbicidal effect and crop phytotoxicity)	–	–	–	–
